Among the test systems are LOX IMVI melanoma; PC-3 prostate; SF-268 CNS; HCT-15 colon; HCC-2998 colon; BT-549 breast; NCI-H226 lung; MCF7 breast; SK-MEL-5 melanoma; COLO 205 colon; KM12 colon; SF-295 CNS; HS 578T breast; SK-OV-3 ovarian; HOP-92 NSCLC; OVCAR-3 ovarian; HOP-62 NSCLC; OVCAR-4 ovarian; SR leukemia; A498 renal.
Test in all cases: growth of human tumour cells (NCI), 48 h

The values below come from PubChem BioAssay (NCI).

Molecules are shown by their SMILES.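 Values below derive from 48-hour exposures of cells grown in 96-well plates, with endpoints linearly interpolated between the two concentrations bracketing the appropriate inhibition level. TGI: concentration producing complete growth inhibition.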 Where a SMILES comes first, the peptide text is derived from it. The star is where a group is joined. Pentanoyl = CCCCC(=O)*; Boc = CC(C)(C)OC(=O)*

Regarding `O=P1(c2ccccc2)c2ccccc2CCc2ccccc21`, the TGI in the assay on LOX IMVI melanoma, in the assay with PC-3 prostate, in the assay on SF-268 CNS, in the assay with HCT-15 colon, in the assay with HCC-2998 colon and with BT-549 breast was greater than 100 µM in each case. In addition, the TGI in the assay on NCI-H226 lung, in the assay on MCF7 breast, in the assay with SK-MEL-5 melanoma, with COLO 205 colon, in the assay with KM12 colon and with SF-295 CNS was greater than 100 µM in each case. For the same compound, the TGI with HS 578T breast, in the assay on SK-OV-3 ovarian, in the assay on HOP-92 NSCLC, with OVCAR-3 ovarian and in the assay with HOP-62 NSCLC was greater than 100 µM each time.
As to `COc1cc(/C=C/C(=O)OCCc2ccccc2)ccc1O`, the TGI in the assay with LOX IMVI melanoma amounted to 36.1 µM; in the assay with PC-3 prostate, 28 µM; in the assay with SF-268 CNS, 47.4 µM; in the assay with HCT-15 colon it was 44.6 µM; with HCC-2998 colon it was 41.3 µM; in the assay with BT-549 breast, 28.1 µM. Further, the TGI with MCF7 breast came out at 44.8 µM; with SK-MEL-5 melanoma, 33.7 µM; in the assay with COLO 205 colon, 34.8 µM; with KM12 colon, 30.3 µM; in the assay on OVCAR-4 ovarian it was 26.1 µM; in the assay with SF-295 CNS, 35.3 µM. The TGI in the assay with HS 578T breast was 50 µM; with SK-OV-3 ovarian it was 29.7 µM; in the assay with OVCAR-3 ovarian, 36.9 µM; with HOP-62 NSCLC, 33.4 µM; in the assay on SR leukemia, 83.5 µM.
As to `CC(=O)Nc1sc([N+](=O)[O-])cc1S(=O)(=O)c1ccc(Cl)cc1`, the TGI is greater than 100 µM with LOX IMVI melanoma; 10.6 µM in the assay with PC-3 prostate; greater than 100 µM in the assay on SF-268 CNS; greater than 95 µM with HCT-15 colon; 8.64 µM in the assay on HCC-2998 colon; greater than 24.8 µM in the assay with BT-549 breast. For the same compound, the TGI was 21.9 µM in the assay with NCI-H226 lung; 9.41 µM in the assay with MCF7 breast; 1.95 µM in the assay with SK-MEL-5 melanoma; 1.77 µM with COLO 205 colon; 14.5 µM in the assay with KM12 colon; greater than 100 µM in the assay with OVCAR-4 ovarian. For the same compound, the TGI is 8.07 µM with SF-295 CNS; 17.2 µM in the assay with HS 578T breast; 15.6 µM in the assay with SK-OV-3 ovarian; 12.7 µM with HOP-92 NSCLC; 16.1 µM with OVCAR-3 ovarian; greater than 27.9 µM with A498 renal. In the assay with HOP-62 NSCLC, this compound showed a TGI of 3.99 µM.
In the case of `COc1ccc2c(c1)c1c(n2CCN(C)C)-c2cccc(OC)c2CC1`, the TGI in the assay on LOX IMVI melanoma worked out at 37.4 µM; in the assay with PC-3 prostate, 24.2 µM; with SF-268 CNS, 38.9 µM; in the assay with HCT-15 colon, 45.9 µM; in the assay on HCC-2998 colon, 34.9 µM; in the assay on BT-549 breast, 40.5 µM. Further, the TGI in the assay with NCI-H226 lung was 17.1 µM; in the assay with MCF7 breast, 29.5 µM; in the assay with SK-MEL-5 melanoma, 35 µM; with COLO 205 colon, 27.7 µM; in the assay on KM12 colon, 25.4 µM; with OVCAR-4 ovarian, 46.9 µM. Further, the TGI was found to be 35.9 µM in the assay on SF-295 CNS; 33.5 µM in the assay on HS 578T breast; 35 µM in the assay with SK-OV-3 ovarian; 44.2 µM in the assay on HOP-92 NSCLC; 30.9 µM with OVCAR-3 ovarian; 44.9 µM in the assay with A498 renal. The same compound showed a TGI with HOP-62 NSCLC of 27.6 µM.
With `O=c1oc2ccccc2c(O)c1C1c2c(c3ccccc3oc2=O)Oc2c1c(=O)oc1ccccc21`, the TGI with LOX IMVI melanoma is greater than 100 µM; with PC-3 prostate, greater than 100 µM; with SF-268 CNS, 94 µM; in the assay on HCT-15 colon, greater than 100 µM; in the assay on HCC-2998 colon, 41.1 µM; with BT-549 breast it was 67.5 µM. Further, the TGI is 64 µM in the assay on NCI-H226 lung; 52.1 µM with SK-MEL-5 melanoma; greater than 100 µM with COLO 205 colon; 57.9 µM in the assay with KM12 colon; greater than 100 µM in the assay with OVCAR-4 ovarian; greater than 100 µM with HS 578T breast. In addition, the TGI with HOP-92 NSCLC, with OVCAR-3 ovarian, in the assay with A498 renal and with HOP-62 NSCLC was greater than 100 µM each time.
On to `Cc1n[nH]c(=O)n1/N=C/c1cccs1`, for which the TGI with LOX IMVI melanoma, with PC-3 prostate, with SF-268 CNS, in the assay with HCT-15 colon, in the assay with HCC-2998 colon and in the assay with BT-549 breast was greater than 100 µM in each case. For the same compound, the TGI in the assay with NCI-H226 lung, in the assay on MCF7 breast, in the assay on COLO 205 colon, with KM12 colon, with OVCAR-4 ovarian and in the assay with SF-295 CNS was greater than 100 µM throughout. Moreover, the TGI in the assay on HS 578T breast, with SK-OV-3 ovarian, in the assay with OVCAR-3 ovarian, with A498 renal and in the assay with HOP-62 NSCLC was greater than 100 µM in each case.
As to `CCCCC(=O)Oc1ccc(CC(NC(=O)OC(C)(C)C)C(=O)NC(C)C(=O)NC(Cc2ccccc2)C(=O)NCC(N)=O)cc1` (stereo not given) (Boc-Y(Pentanoyl)AFG-NH2; configuration not given here), the TGI with LOX IMVI melanoma is 30.7 µM; with PC-3 prostate, greater than 100 µM; in the assay on SF-268 CNS it was greater than 100 µM; with HCT-15 colon, greater than 100 µM; in the assay on HCC-2998 colon, 38.8 µM; with BT-549 breast, 55.7 µM. Moreover, the TGI is greater than 100 µM with NCI-H226 lung; 41.8 µM in the assay with MCF7 breast; greater than 100 µM in the assay on SK-MEL-5 melanoma; 37.6 µM in the assay with COLO 205 colon; 47.8 µM in the assay on KM12 colon; greater than 100 µM in the assay on OVCAR-4 ovarian. The TGI with SF-295 CNS is greater than 100 µM; in the assay on HS 578T breast it was greater than 100 µM; with SK-OV-3 ovarian, greater than 100 µM; with HOP-92 NSCLC, 99.4 µM; in the assay with OVCAR-3 ovarian, 39.2 µM; in the assay with A498 renal, greater than 100 µM. The compound further returned a TGI with HOP-62 NSCLC of 50 µM.
For `COC(=O)C1C(OC(=O)C(Cl)(c2ccccc2)c2ccccc2)CC2CCC1N2C` (stereo not given), the TGI in the assay with LOX IMVI melanoma, in the assay with PC-3 prostate, in the assay on SF-268 CNS, in the assay on HCT-15 colon, with HCC-2998 colon and with BT-549 breast was greater than 100 µM throughout. For the same compound, the TGI with NCI-H226 lung, in the assay with MCF7 breast, in the assay with SK-MEL-5 melanoma, with COLO 205 colon, in the assay with KM12 colon and in the assay on SF-295 CNS was greater than 100 µM each time. Further, the TGI in the assay on SK-OV-3 ovarian, with OVCAR-3 ovarian, with HOP-62 NSCLC and in the assay on SR leukemia was greater than 100 µM each time.
